# Measurements from PubChem BioAssay AID212 (DTP/NCI, 2004).
# Values joined by “and” are separate entries in the source; they are usually repeats but may differ in a detail not shown here. Equal values may be shown once. Records with an inconclusive call do not appear.
# Test system: BDF1 mice, colon carcinoma 38 sc, T/C %
# Test: NCI In Vivo Anticancer Drug Screen. Data for tumor model Colon Carcinoma 38 (subcutaneous) in B6D2F1 (BDF1) mice
# How it was run: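 Ratio of survival or tumor size, compound-treated animals relative to vehicle controls, in tumor-bearing mice.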
smiles,measurement,setting,value
COc1ccc(CC2C(=O)NC(C)C(=O)N(C)C3C(=O)N(C)C(Cc4ccc(O)c(c4)Oc4ccc(cc4)C3O)C(=O)NC(C)C(=O)NC(C)C(=O)N2C)cc1 (configuration not stated),T/C,"endpoint: median tumor weight (est.), dose: 0.5 mg/kg/injection, schedule: Q07DX003 (ip), vehicle: Klucel (hydroxypropylcellulose) (HPC), higher = larger tumour",98 % of control
same,T/C,"endpoint: median tumor weight (est.), dose: 1.0 mg/kg/injection, schedule: Q07DX003 (ip), vehicle: Klucel (hydroxypropylcellulose) (HPC), higher = larger tumour",106 % of control
same,T/C,"endpoint: median tumor weight (est.), dose: 4.0 mg/kg/injection, schedule: Q07DX003 (ip), vehicle: Klucel (hydroxypropylcellulose) (HPC), higher = larger tumour",182 % of control
same,T/C,"endpoint: median tumor weight (est.), dose: 8.0 mg/kg/injection, schedule: Q07DX003 (ip), vehicle: Klucel (hydroxypropylcellulose) (HPC), higher = larger tumour",159 % of control
same,T/C,"endpoint: median tumor weight (est.), dose: 16.0 mg/kg/injection, schedule: Q07DX003 (ip), vehicle: Klucel (hydroxypropylcellulose) (HPC), higher = larger tumour",44 % of control
C=C1C(C2(C)C(OC(C)=O)CC(=O)OC(C)(COC(C)=O)C2CC(=O)OC)C(OC=O)C(OC(=O)C(O)C(C)CC)C2(C)C(c3ccoc3)CC(=O)C12O (configuration not stated),T/C,"endpoint: median tumor weight (est.), dose: 3.0 mg/kg/injection, schedule: Q07DX002 (ip), vehicle: Klucel (hydroxypropylcellulose) (HPC), higher = larger tumour",64 % of control
same,T/C,"endpoint: median tumor weight (est.), dose: 6.0 mg/kg/injection, schedule: Q07DX002 (ip), vehicle: Klucel (hydroxypropylcellulose) (HPC), higher = larger tumour",68 % of control
same,T/C,"endpoint: median tumor weight (est.), dose: 12.0 mg/kg/injection, schedule: Q07DX002 (ip), vehicle: Klucel (hydroxypropylcellulose) (HPC), higher = larger tumour",77 % of control
same,T/C,"endpoint: median tumor weight (est.), dose: 24.0 mg/kg/injection, schedule: Q07DX002 (ip), vehicle: Klucel (hydroxypropylcellulose) (HPC), higher = larger tumour",90 % of control
same,T/C,"endpoint: median tumor weight (est.), dose: 48.0 mg/kg/injection, schedule: Q07DX002 (ip), vehicle: Klucel (hydroxypropylcellulose) (HPC), higher = larger tumour",61 % of control
OCCN1CCN(CC/C=C2/c3ccccc3Sc3ccc(Cl)cc32)CC1,T/C,"endpoint: median tumor weight (est.), dose: 3.12 mg/kg/injection, schedule: Q07DX002 (ip), vehicle: saline, higher = larger tumour",83 % of control
same,T/C,"endpoint: median tumor weight (est.), dose: 6.25 mg/kg/injection, schedule: Q07DX002 (ip), vehicle: saline, higher = larger tumour",39 % of control
same,T/C,"endpoint: median tumor weight (est.), dose: 12.5 mg/kg/injection, schedule: Q07DX002 (ip), vehicle: saline, higher = larger tumour",112 % of control
same,T/C,"endpoint: median tumor weight (est.), dose: 25.0 mg/kg/injection, schedule: Q07DX002 (ip), vehicle: saline, higher = larger tumour",67 % of control
same,T/C,"endpoint: median tumor weight (est.), dose: 50.0 mg/kg/injection, schedule: Q07DX002 (ip), vehicle: saline, higher = larger tumour",110 % of control
same,T/C,"endpoint: median tumor weight (est.), dose: 100.0 mg/kg/injection, schedule: Q07DX002 (ip), vehicle: saline, higher = larger tumour",99 % of control
N#Cc1cn(C2OC(CO)C(O)C2O)c2ncnc(N)c12 (configuration not stated),T/C,"endpoint: median tumor weight (est.), dose: 0.12 mg/kg/injection, schedule: Q07DX002 (ip), vehicle: saline, higher = larger tumour",91 % of control
same,T/C,"endpoint: median tumor weight (est.), dose: 0.25 mg/kg/injection, schedule: Q07DX002 (ip), vehicle: saline, higher = larger tumour",77 % of control
same,T/C,"endpoint: median tumor weight (est.), dose: 1.0 mg/kg/injection, schedule: Q07DX002 (ip), vehicle: saline, higher = larger tumour",86 % of control
same,T/C,"endpoint: median tumor weight (est.), dose: 2.0 mg/kg/injection, schedule: Q07DX002 (ip), vehicle: saline, higher = larger tumour",59 % of control
N=C(N)Sc1cc(O)ccc1O,T/C,"endpoint: median tumor weight (est.), dose: 12.5 mg/kg/injection, schedule: Q07DX003 (ip), vehicle: saline, higher = larger tumour",88 % of control
same,T/C,"endpoint: median tumor weight (est.), dose: 25.0 mg/kg/injection, schedule: Q07DX003 (ip), vehicle: saline, higher = larger tumour",66 % of control
same,T/C,"endpoint: median tumor weight (est.), dose: 50.0 mg/kg/injection, schedule: Q07DX003 (ip), vehicle: saline, higher = larger tumour",77 % of control
same,T/C,"endpoint: median tumor weight (est.), dose: 100.0 mg/kg/injection, schedule: Q07DX003 (ip), vehicle: saline, higher = larger tumour",103 % of control
same,T/C,"endpoint: median tumor weight (est.), dose: 200.0 mg/kg/injection, schedule: Q07DX003 (ip), vehicle: saline, higher = larger tumour",55 % of control
CN(N=O)C(=O)N[C@@H](C=O)[C@@H](O)[C@H](O)[C@H](O)CO,T/C,"endpoint: median survival time, dose: 23.0 mg/kg/injection, schedule: Q01DX010 (sc), vehicle: other, higher = longer survival",110 % of control
same,T/C,"endpoint: median survival time, dose: 37.0 mg/kg/injection, schedule: Q01DX010 (sc), vehicle: other, higher = longer survival",100 % of control
same,T/C,"endpoint: median survival time, dose: 60.0 mg/kg/injection, schedule: Q01DX010 (sc), vehicle: other, higher = longer survival",115 % of control
same,T/C,"endpoint: median tumor weight (est.), dose: 12.5 mg/kg/injection, schedule: Q07DX003 (ip), vehicle: other, higher = larger tumour",78 % of control
same,T/C,"endpoint: median tumor weight (est.), dose: 25.0 mg/kg/injection, schedule: Q07DX003 (ip), vehicle: other, higher = larger tumour",54 % of control
same,T/C,"endpoint: median tumor weight (est.), dose: 50.0 mg/kg/injection, schedule: Q07DX003 (ip), vehicle: other, higher = larger tumour",66 % of control
same,T/C,"endpoint: median tumor weight (est.), dose: 100.0 mg/kg/injection, schedule: Q07DX003 (ip), vehicle: other, higher = larger tumour",56 % of control
same,T/C,"endpoint: median tumor weight (est.), dose: 200.0 mg/kg/injection, schedule: Q07DX003 (ip), vehicle: other, higher = larger tumour",34 % of control
Cc1cc(O)c2c(c1O)C(=O)C13C(=C2O)C(=O)C2C(O)C1C1C(O)C3C(=O)C3=C(O)c4c(O)cc(C)c(O)c4C(=O)C321 (configuration not stated),T/C,"endpoint: median tumor weight (est.), dose: 6.25 mg/kg/injection, schedule: Q07DX002 (ip), vehicle: saline with Tween-80, higher = larger tumour",68 % of control
O=NN(CCCl)C(=O)NC1[C@H](O)CCC[C@@H]1O (some centres not stated),T/C,"endpoint: median tumor weight (est.), dose: 1.25 mg/kg/injection, schedule: Q07DX002 (ip), vehicle: saline, higher = larger tumour",68 % of control
same,T/C,"endpoint: median tumor weight (est.), dose: 2.5 mg/kg/injection, schedule: Q07DX002 (ip), vehicle: saline, higher = larger tumour",53 % of control and 76 % of control
same,T/C,"endpoint: median tumor weight (est.), dose: 10.0 mg/kg/injection, schedule: Q07DX002 (ip), vehicle: saline, higher = larger tumour",9 % of control and 26 % of control
